Tested on: AChE
Assay: Cholinesterase activity of human ocular fluid (micro Ellman assay, acetylthiocholine substrate), inhibition by BW 284c51
Format: biochemical
Settings: BW 284c51 1.5 μM, acetylthiocholine 1.0 mM, pH 7.0, 25° C.
Procedure: Cholinesterase activities were measured by a microversion of the method of Ellman et al, (1961) supra, using microtitre plates. Acetylthiocholine was used as substrate at a concentration of 1.0 mM, which is optimal for AChE, but suboptimal for BuChE. The assay was performed in 0.05M Na/K phosphate buffer, pH 7.0 at 25° C., containing 3 mM 5,5'-dithio-bis-(2-nitrobenzoate), in a total volume of 100 μL. The rate of hydrolysis of acetylthiocholine was monitored by measurement of absorbances at 410 nm, using a Titertek multiscan microplate reader. A calibration curve was constructed using purified electric eel AChE (Sigma). AChE and BuChE activities were distinguished by use of the specific AChE inhibitor 1,5-bis-(-4-allyldimethylammoniumphenyl)pentan-3-one dibromide (BW 284c51) (1.5 μM).

Question: For C=CC[N+](C)(C)c1ccc(CCC(=O)CCc2ccc([N+](C)(C)CC=C)cc2)cc1 [BW 284c51, 1,5-bis-(-4-allyldimethylammoniumphenyl)pentan-3-one dibromide], which “inhibition of cholinesterase activity of ocular fluid” value is on record?
Answer: Most of this activity was inhibited

From patent US5595883A, “Method of diagnosing alzheimer's disease by measuring acetylcholinesterase activity in ocular fluid” (priority 1990, dated 1997)
